Laboratory results reported in patent US20080108697A1, “Device for packaging an oxaliplatin solution” (priority 2001, published 2008).

Columns and labels:
[1] = Stability of aqueous oxaliplatin preparations in type I glass bottles under normal conditions (25° C., 60% relative humidity), total impurities by HPLC; type: physicochemical; conditions: for Level of impurity 5 years: 2 mg/ml, 50 ml bottle (ratio 0.12); for Level of impurity 5 years / Level of impurity 1 month / Level of impurity 2.5 months / Level of impurity 4 months / Level of impurity 5.5 months / Level of impurity 7 months / Level of impurity 10 months: 25° C./60% RH
Experimental: To carry out this trial, four series of bottles, consisting of a colorless type I glass, all of cylindrical shape but of different volumes, were used. Table 2 assembles, for each series of bottles, their so-called “useful” capacity, their so-called “brim” capacity, the inner diameter of these bottles, that of their neck and their height.
These bottles, used for the first time, were subjected beforehand to three cycles of washing and rinsing with hot water heated to about 50° C. and water of so-called PI grade before being dried.
Three oxaliplatin stock solutions at concentrations of 2 mg/ml, 5 mg/ml and 7 mg/ml, respectively, were prepared in the usual manner using PI grade water as solvent. No particular stabilizing agent was used.
Aliquots of these preparations were collected and then transferred under aseptic filling conditions into different bottles so as to reach the respective level corresponding to the heights indicated below. The bottles were then hermetically closed by seaming a cap.
For studies of stability under normal conditions, a first portion of these bottles were then placed in a first chamber thermostated at a temperature of 25° C. and at a relative humidity of 60%. These bottles were maintained upright and at rest without particular stirring for the periods indicated below.
Samples were collected at the periods indicated and then analyzed by high-performance liquid chromatography according to a conventional method in order to quantify the level of noncharacterized total impurities, expressed as a percentage by weight, relative to the quantities of oxaliplatin present in each of the samples.
This study was performed on groups of bottles having a useful capacity of 5 ml, 15 ml and 20 ml, respectively, filled as described above with aliquots of a stock solution at a concentration of 5 mg/ml, and then stored under the conditions mentioned above for a period of at least 10 months.
Samples were collected at periods of 1 month, and then 2.5 months, 4 months, 5.5 months, 7 months and 10 months, respectively, after bottling.
This study was performed as above, with the difference that the bottles were loaded with aliquots of a stock solution at a concentration of 7 mg/ml and samples were collected at the same periods.
This study was performed on three batches of bottles having the same useful capacity of 50 ml, filled as described above with aliquots of the same volume of a stock solution at a concentration of 2 mg/ml, and then stored under the conditions mentioned above for a period of 5 years. At the end of this period, samples were collected for analysis.

[2] = plastic material free of PVC in direct contact; period of at least one year; cited from earlier work
[3] = Stability study under accelerated conditions (40° C., 75% humidity); type: physicochemical; conditions: aqueous solution in the selected bottles and filling conditions, humidity 75%
Experimental: Finally, it will be noted that the applicant has carried out a study of stability under accelerated conditions intended to anticipate stabilities on a scale of 3 years. To this effect, bottles were placed in a chamber thermostated at a temperature of 40° C. and in an atmosphere having a humidity of 75%. Samples were regularly collected and then analyzed.

[4] = 5 mg/ml, 5 ml bottle (ratio 0.26)
[5] = 5 mg/ml, 15 ml bottle (ratio 0.20)
[6] = 5 mg/ml, 20 ml bottle (ratio 0.17)
[7] = deduced from curve of FIG. 1 (4 months), c=5 mg/ml
[8] = deduced from curve of FIG. 2 (4 months), printed c=5 mg/ml

O=C1[O][Pt]2([NH][C@@H]3CCCC[C@H]3[NH]2)[O]C1=O [oxaliplatin, Oxaliplatin]
Level of impurity 5 years ([1]; batch 1): 1.47 % by weight
Level of impurity 5 years ([1]; batch 2): 1.56 % by weight
Level of impurity 5 years ([1]; batch 3): 1.55 % by weight
Level of impurity 1 month ([1]; 5 mg/ml aqueous solution, bottle useful capacity 5 ml (surface area/volume ratio 0.26)): 2.34 % by weight
Level of impurity 2.5 months [1, 4]: 2.55 % by weight
Level of impurity 4 months [1, 4]: 2.89 % by weight
Level of impurity 5.5 months [1, 4]: 2.70 % by weight
Level of impurity 7 months [1, 4]: 3.19 % by weight
Level of impurity 10 months [1, 4]: 3.64 % by weight
Level of impurity 1 month [1, 5]: 1.15 % by weight
Level of impurity 2.5 months [1, 5]: 1.16 % by weight
Level of impurity 4 months [1, 5]: 1.23 % by weight
Level of impurity 5.5 months [1, 5]: 1.50 % by weight
Level of impurity 7 months [1, 5]: 1.56 % by weight
Level of impurity 10 months [1, 5]: 1.59 % by weight
Level of impurity 1 month [1, 6]: 1.06 % by weight
Level of impurity 2.5 months [1, 6]: 1.11 % by weight
Level of impurity 4 months [1, 6]: 1.13 % by weight
Level of impurity 5.5 months [1, 6]: 1.38 % by weight
Level of impurity 7 months [1, 6]: 1.42 % by weight
Level of impurity 10 months [1, 6]: 1.45 % by weight
Level of impurity 1 month ([1]; 7 mg/ml, 5 ml bottle): 1.87 % by weight
Level of impurity 2.5 months ([1]; 7 mg/ml, 5 ml bottle): 2.09 % by weight
Level of impurity 4 months ([1]; 7 mg/ml, 5 ml bottle): 2.33 % by weight
Level of impurity 5.5 months ([1]; 7 mg/ml, 5 ml bottle): 2.56 % by weight
Level of impurity 7 months ([1]; 7 mg/ml, 5 ml bottle): 2.75 % by weight
Level of impurity 10 months ([1]; 7 mg/ml, 5 ml bottle): 2.98 % by weight
Level of impurity 1 month ([1]; 7 mg/ml, 15 ml bottle): 0.96 % by weight
Level of impurity 2.5 months ([1]; 7 mg/ml, 15 ml bottle): 1.03 % by weight
Level of impurity 4 months ([1]; 7 mg/ml, 15 ml bottle): 1.12 % by weight
Level of impurity 5.5 months ([1]; 7 mg/ml, 15 ml bottle): 1.19 % by weight
Level of impurity 7 months ([1]; 7 mg/ml, 15 ml bottle): 1.23 % by weight
Level of impurity 10 months ([1]; 7 mg/ml, 15 ml bottle): 1.30 % by weight
Level of impurity 1 month ([1]; 7 mg/ml, 20 ml bottle): 0.70 % by weight
Level of impurity 2.5 months ([1]; 7 mg/ml, 20 ml bottle): 0.81 % by weight
Level of impurity 4 months ([1]; 7 mg/ml, 20 ml bottle): 0.97 % by weight
Level of impurity 5.5 months ([1]; 7 mg/ml, 20 ml bottle): 1.04 % by weight
Level of impurity 7 months ([1]; 7 mg/ml, 20 ml bottle): 1.07 % by weight
Level of impurity 10 months ([1]; 7 mg/ml, 20 ml bottle): 1.11 % by weight
R0, theoretical maximum surface area/volume ratio for which no impurity would be quantifiable [1, 7]: 0.10
constant A of R=R0+A.c.I [1, 7]: 0.01 ml/(mg.m)
R0, theoretical maximum surface area/volume ratio for which no impurity would be quantifiable [1, 8]: 0.11
constant A of R=R0+A.c.I [1, 8]: 0.009 ml/(mg.m)
degradation on preservation in flexible bags for infusion [2]: no degradation
period of storage suggested by accelerated stability study [3]: at least 36 months
